Like-named read-outs stand apart in the source and are kept apart here.
Tested on: PRG4 mRNA
Details: primary human corneal epithelial cells; for increase in PRG4 mRNA levels relative to the control levels at Day 0: 10 nM DHT
Method: (§1) Cells were grown in keratinocyte serum free media until reaching about 80% confluence. Cells (n=3 wells/treatment/experiment) were then incubated with either vehicle or 10 nM dihydrotestosterone (DHT) for up to 5 days. At designated times cells were processed for total RNA isolation and analysis of PRG4 mRNA mRNA by RT-PCR.
as §1, with “Methods. Cells were” for “Cells were”, “by RT-PCR. Results.” for “by RT-PCR.”

## C[C@]12CCC(=O)C[C@@H]1CC[C@@H]1[C@@H]2CC[C@]2(C)[C@@H](O)CC[C@@H]12 [DHT, dihydrotestosterone]
3 days of hormone exposure
  increase in PRG4 mRNA levels relative to the control levels at Day 0: 10.3 fold
4 days of hormone exposure
  increase in PRG4 mRNA levels relative to the control levels at Day 0: 3.6 fold
5 days of hormone exposure
  increase in PRG4 mRNA levels relative to the control levels at Day 0: 2.8 fold
Another experiment, treatment of cells for 5 days with DHT
  increase in PRG4 mRNA content relative to that of vehicle-treated controls: 46 fold

— patent US9138457B2, “Therapeutic modulation of ocular surface lubrication” (THE REGENTS OF THE UNIVERSITY OF CALIFORNIA, priority 2008, dated 2015)
